Laboratory results from US12350270B2, “Antimalarial agents” (Merck Sharp & Dohme LLC, priority 2019, dated 2025).

System: parasites (ring stage, in human red blood cell culture)
Experiment: Parasite LDH growth assay (antiparasite potency, Parasite Assay)
Format: cell-based, Plasmodium falciparum
Conditions: 0.7% rings, 2% haematocrit, 72 hours at 37° C., LDH readout of parasite growth
Procedure: Assessing Antiparasite Potency in a Parasite LDH Growth Assay (Parasite Assay)
The parasite stock was maintained at 4% haematocrit in RPMI-Hepes media buffered with sodium bicarbonate and supplemented with 5% heat inactivated human serum and 0.5% albumax.
On the day of assay set up, a blood smear of the parasite culture was Giemsa stained and counted. The parasitemia was adjusted to 0.7% rings and the haematocrit was diluted to 2% in RPMI-Hepes media buffered with sodium bicarbonate and supplemented with 5% heat inactivated human serum and 0.5% albumax. 30 ul of diluted parasites are then added into 10 ul of media+compound in pre-prepared Greiner TC assay plates. Parasite assay plates were placed in gassed humidified boxes in single layer and allowed to incubate at 37° C. for 72 hours. After 72 hours growth, assay plates are sealed with parafilm and frozen flat, in single file at −80° C. overnight. On the following day, assay plates are allowed to thaw at room temperature for 4 hours to which an LDH assay is performed to measure parasite growth.

| SMILES | EC50 |
| --- | --- |
| CC1(C)CC(=O)N([C@@H]2CCOc3ccc(C(=O)N[C@H]4CC(C)(C)Oc5ccccc54)cc32)C(=N)N1 [Example 12A, (R)-N-((S)-2,2-dimethylchroman-4-yl)-4-(2-imino-4,4-dimethyl-6-oxotetrahydropyrimidin-1(2H)-yl)chromane-6-carboxamide] | 1.1 nM |

Same assay, conditions: Plasmodium falciparum, Erythrocyte, 72 h, 0.7% rings, 2% haematocrit, 72 hours at 37° C., LDH readout of parasite growth

| SMILES | EC50 |
| --- | --- |
| CCC1(CC)CC(=O)N([C@@H]2CCOc3ccc(C(=O)N[C@H]4CC(C)(C)Oc5ccc(F)cc54)cc32)C(=N)N1 [Example 7A, (R)-4-(4,4-diethyl-2-imino-6-oxotetrahydropyrimidin-1(2H)-yl)-N-((S)-6-fluoro-2,2-dimethylchroman-4-yl)chromane-6-carboxamide] | 0.4 nM |
| CCC1(CC)CC(=O)N([C@@H]2CCOc3ccc(C(=O)N[C@@H]4CC(C)(C)Oc5ccc(F)cc54)cc32)C(=N)N1 [Example 7B, (R)-4-(4,4-diethyl-2-imino-6-oxotetrahydropyrimidin-1(2H)-yl)-N-((R)-6-fluoro-2,2-dimethylchroman-4-yl)chromane-6-carboxamide] | 19 nM |
| CC(C)[C@]1(C)CC(=O)N([C@@H]2CCOc3ccc(C(=O)N[C@H]4CC(C)(C)Oc5ccccc54)cc32)C(=N)N1 [Example 10A, (R)-N-((S)-2,2-dimethylchroman-4-yl)-4-((S)-2-imino-4-isopropyl-4-methyl-6-oxotetrahydropyrimidin-1(2H)-yl)chromane-6-carboxamide] | 0.5 nM |
| CC(C)[C@]1(C)CC(=O)N([C@@H]2CCOc3ccc(C(=O)N[C@@H]4c5ccccc5OC(C)(C)C4O)cc32)C(=N)N1 (stereo partly drawn) [Example 11B, (4R)-N-(3-hydroxy-2,2-dimethylchroman-4-yl)-4-((S)-2-imino-4-isopropyl-4-methyl-6-oxotetrahydropyrimidin-1(2H)-yl)chromane-6-carboxamide] | 84 nM |
| CCC1(CC)CC(=O)N([C@@H]2CCOc3ccc(C(=O)N[C@H]4CC(C)(C)Oc5ccc(Br)cc54)cc32)C(=N)N1 [Example 14A, (R)-N-((S)-6-bromo-2,2-dimethylchroman-4-yl)-4-(4,4-diethyl-2-imino-6-oxotetrahydropyrimidin-1(2H)-yl)chromane-6-carboxamide] | 1 nM |
| CCC1(CC)CC(=O)N([C@@H]2CCOc3ccc(C(=O)N[C@@H]4c5cc(Br)ccc5OC(C)(C)[C@H]4O)cc32)C(=N)N1 [Example 15A, (R)-N-((3S,4R)-6-bromo-3-hydroxy-2,2-dimethylchroman-4-yl)-4-(4,4-diethyl-2-imino-6-oxotetrahydropyrimidin-1(2H)-yl)chromane-6-carboxamide] | 0.3 nM |
| CCC1(CC)CC(=O)N([C@@H]2CC(COC)Oc3ccc(C(=O)N[C@@H]4c5ccccc5OC(C)(C)[C@H]4O)cc32)C(=N)N1 (stereo partly drawn) [Example 18A, (4R)-4-(4,4-diethyl-2-imino-6-oxotetrahydropyrimidin-1(2H)-yl)-N-((3S,4R)-3-hydroxy-2,2-dimethylchroman-4-yl)-2-(methoxymethyl)chromane-6-carboxamide] | 0.8 nM |
| CCC1(CC)CC(=O)N([C@@H]2CCOc3ccc(C(=O)N[C@@H]4c5cc(Cl)ccc5OC(C)(C)[C@H]4O)cc32)C(=N)N1 [Example 19A, (R)-N-((3S,4R)-6-chloro-3-hydroxy-2,2-dimethylchroman-4-yl)-4-(4,4-diethyl-2-imino-6-oxotetrahydropyrimidin-1(2H)-yl)chromane-6-carboxamide] | 0.3 nM |
| CCC1(CC)CC(=O)N([C@@H]2CCOc3ccc(C(=O)N[C@@H]4c5cc(C#N)ccc5OC(C)(C)[C@H]4O)cc32)C(=N)N1 [Example 20A, (R)-N-((3S,4R)-6-cyano-3-hydroxy-2,2-dimethylchroman-4-yl)-4-(4,4-diethyl-2-imino-6-oxotetrahydropyrimidin-1(2H)-yl)chromane-6-carboxamide] | 0.8 nM |
| CCC1(CC)CC(=O)N([C@@H]2CCOc3ccc(C(=O)N[C@H]4CC(C)(C)Oc5ccc(C#N)cc54)cc32)C(=N)N1 [Example 21A, (R)-N-((S)-6-cyano-2,2-dimethylchroman-4-yl)-4-(4,4-diethyl-2-imino-6-oxotetrahydropyrimidin-1(2H)-yl)chromane-6-carboxamide] | 0.8 nM |
| CCC1(CC)CC(=O)N([C@@H]2CC3(COC3)Oc3ccc(C(=O)N[C@H]4CC(C)(C)Oc5ccccc54)cc32)C(=N)N1 [Example 22A, (R)-4-(4,4-diethyl-2-imino-6-oxotetrahydropyrimidin-1(2H)-yl)-N-((S)-2,2-dimethylchroman-4-yl)spiro[chromane-2,3′-oxetane]-6-carboxamide] | 0.7 nM |
| CCC1(CC)CC(=O)N([C@@H]2CC3(COC3)Oc3ccc(C(=O)N[C@@H]4c5ccccc5C[C@H]4O)cc32)C(=N)N1 [Example 23A, (R)-4-(4,4-diethyl-2-imino-6-oxotetrahydropyrimidin-1(2H)-yl)-N-((1R,2R)-2-hydroxy-2,3-dihydro-1H-inden-1-yl)spiro[chromane-2,3′-oxetane]-6-carboxamide] | 5 nM |
| CCC1(CC)CC(=O)N([C@@H]2CC3(COC3)Oc3ccc(C(=O)N[C@@H]4c5ccccc5OC(C)(C)[C@H]4O)cc32)C(=N)N1 [Example 24A, (R)-4-(4,4-diethyl-2-imino-6-oxotetrahydropyrimidin-1(2H)-yl)-N-((3S,4R)-3-hydroxy-2,2-dimethylchroman-4-yl)spiro[chromane-2,3′-oxetane]-6-carboxamide] | 9.3 nM |
| CCC1(CC)CC(=O)N([C@@H]2CCOc3ccc(C(=O)N[C@@H]4c5cc(F)ccc5OC(C)(C)[C@H]4O)cc32)C(=N)N1 [Example 25A, (R)-4-(4,4-diethyl-2-imino-6-oxotetrahydropyrimidin-1(2H)-yl)-N-((3S,4R)-6-fluoro-3-hydroxy-2,2-dimethylchroman-4-yl)chromane-6-carboxamide] | 0.5 nM |
| CCC1(CC)CC(=O)N([C@@H]2CCOc3ccc(C(=O)N[C@H]4c5cc(F)ccc5OC(C)(C)[C@@H]4O)cc32)C(=N)N1 [Example 25B, (R)-4-(4,4-diethyl-2-imino-6-oxotetrahydropyrimidin-1(2H)-yl)-N-((3R,4S)-6-fluoro-3-hydroxy-2,2-dimethylchroman-4-yl)chromane-6-carboxamide] | 59.8 nM |
| CCC1(CC)CC(=O)N([C@@H]2CCOc3c(Cl)cc(C(=O)N[C@H]4CC(C)(C)Oc5ccccc54)cc32)C(=N)N1 [Example 26A, (R)-8-chloro-4-(4,4-diethyl-2-imino-6-oxotetrahydropyrimidin-1(2H)-yl)-N-((S)-2,2-dimethylchroman-4-yl)chromane-6-carboxamide] | 1.3 nM |
| CCC1(CC)CC(=O)N([C@@H]2CCOc3c(Cl)cc(C(=O)N[C@@H]4CC(C)(C)Oc5ccccc54)cc32)C(=N)N1 [Example 26B, (R)-8-chloro-4-(4,4-diethyl-2-imino-6-oxotetrahydropyrimidin-1(2H)-yl)-N-((R)-2,2-dimethylchroman-4-yl)chromane-6-carboxamide] | 180 nM |
| CCC1(CC)CC(=O)N([C@@H]2CCOc3c(C#N)cc(C(=O)N[C@H]4CC(C)(C)Oc5ccccc54)cc32)C(=N)N1 [Example 27A, (R)-8-cyano-4-(4,4-diethyl-2-imino-6-oxotetrahydropyrimidin-1yl)-N-((S)-2,2-dimethylchroman-4-yl)chromane-6-carboxamide] | 1.3 nM |
| CCC1(CC)CC(=O)N([C@@H]2CCOc3c(C#N)cc(C(=O)N[C@@H]4c5ccccc5OC(C)(C)[C@H]4O)cc32)C(=N)N1 [Example 28A, (R)-8-cyano-4-(4,4-diethyl-2-imino-6-oxotetrahydropyrimidin-1(2H)-yl)-N-((3S,4R)-3-hydroxy-2,2-dimethylchroman-4-yl)chromane-6-carboxamide] | 1.8 nM |
| CCC1(CC)CC(=O)N([C@@H]2CCOc3c(Cl)cc(C(=O)N[C@@H]4c5ccccc5OC(C)(C)[C@H]4O)cc32)C(=N)N1 [Example 29A, (R)-8-chloro-4-(4,4-diethyl-2-imino-6-oxotetrahydropyrimidin-1(2H)-yl)-N-((3S,4R)-3-hydroxy-2,2-dimethylchroman-4-yl)chromane-6-carboxamide] | 1 nM |
| CCC1(CC)CC(=O)N([C@@H]2CCOc3c(Cl)cc(C(=O)N[C@H]4c5ccccc5OC(C)(C)[C@@H]4O)cc32)C(=N)N1 [Example 29B, (R)-8-chloro-4-(4,4-diethyl-2-imino-6-oxotetrahydropyrimidin-1(2H)-yl)-N-((3R,4S)-3-hydroxy-2,2-dimethylchroman-4-yl)chromane-6-carboxamide] | 39.7 nM |
| CCC1(CC)CC(=O)N([C@@H]2CCOc3ccc(C(=O)N[C@@H]4c5ccccc5OC(C)(C)[C@H]4O)nc32)C(=N)N1 [Example 30A, (R)-4-(4,4-diethyl-2-imino-6-oxotetrahydropyrimidin-1(2H)-yl)-N-((3S,4R)-3-hydroxy-2,2-dimethylchroman-4-yl)-3,4-dihydro-2H-pyrano[3,2-b]pyridine-6-carboxamide] | 0.8 nM |
| CCC1(CC)CC(=O)N([C@@H]2CCOc3ccc(C(=O)N[C@@H]4CC(C)(C)Oc5ccccc54)nc32)C(=N)N1 [Example 31A, (R)-4-(4,4-diethyl-2-imino-6-oxotetrahydropyrimidin-1(2H)-yl)-N-((R)-2,2-dimethylchroman-4-yl)-3,4-dihydro-2H-pyrano[3,2-b]pyridine-6-carboxamide] | 22 nM |
| CCC1(CC)CC(=O)N([C@@H]2CCOc3ccc(C(=O)N[C@H]4CC(C)(C)Oc5ccccc54)nc32)C(=N)N1 [Example 31B, (R)-4-(4,4-diethyl-2-imino-6-oxotetrahydropyrimidin-1(2H)-yl)-N-((S)-2,2-dimethylchroman-4-yl)-3,4-dihydro-2H-pyrano[3,2-b]pyridine-6-carboxamide] | 1 nM |
